Data from patent US12116635B2, “Methods for detecting and treating cancers having adenosine pathway activation” (Corvus Pharmaceuticals, Inc., priority 2018, dated 2024).
Entries after “also recorded” stand apart in the source; their conditions may differ.

Assays:
[1] = test system: PBMCs; assay: CXCL5 protein ELISA in culture supernatants of PBMCs treated with NECA +/- CPI-444; format: cell-based, human
Protocol: Expression of CXCL5 was determined by ELISA 2 days after activation.
FIGS. 2B and 2C show the response of PBMCs from two different donors to NECA+/−CPI-444 treatment. DMSO was used as vehicle control. […] This control helps establish that the induction of CXCL5 is specific to signaling through adenosine receptors.
NECA activation of CXCL5 protein expression was evaluated. PBMCs were harvested from two different human donors. […] CPI-444 (Corvus Pharmaceuticals) is an antagonist of the adenosine A2A receptor. CXCL5 protein in the culture supernatants was evaluated by ELISA two days after activation. CXCL5 expression is activated by NECA. […] This establishes that the induction of CXCL5 is specific to signaling through adenosine receptors.

[2] = test system: advanced cancers; assay: Ongoing phase 1/1b trial in patients with advanced cancers; format: in vivo, human; details: as a monotherapy and in combination with atezolizumab
Text: “Adenosine receptor antagonist” refers to a molecule that inhibits activity of adenosine receptors (e.g. A2A or A2B receptors), typically through direct action. Adenosine receptors antagonists can be small or large molecule antagonists. In embodiments, CPI-444 is an example A2A receptor antagonist. […] CPI-444 is described, for example, in PCT Patent Publication No. WO 2017/112917; each of which is incorporated herein by reference in its entirety.

[3] = test system: A2AR; assay: In vitro A2AR stimulation gene signature +/- CPI-444 (transcript and protein); format: cell-based, human; details: at the transcript and protein level
Protocol: RNA purified from normal, healthy human peripheral blood mononuclear cells (PBMCs) treated with 5′-N-ethylcarboxamidoadenosine (NECA) and activated with anti-CD3/CD28 antibody were analyzed by NanoString hybridization-based quantification (NanoString Technologies, Inc.). […] Each dot represents the expression level of a specific gene. Dot shade represents the concentration of NECA used and/or different PBMC donors. […] Increases in monocyte/macrophage inflammatory mediators such as IL-1b and CCL2, 3, 7, 8, 20 were also observed, as were increases in SERPINB2, S100A8, PTGS2, THBS1. Expression of CXCL10 and GZMB were decreased, consistent with a suppressed IFNg response. […] A2AR agonists induce a specific gene signature (increase in a certain subset of genes and/or decrease in a second subset of genes) dominated by immunosuppressive mediators of MDSC and monocyte/macrophage biology. Inhibition of these genes by CPI-444 are observed. These gene signatures may be used as biomarkers for patient selection.

[4] = test system: human peripheral blood mononuclear cells (PBMCs); assay: RNA sequencing (RNA-Seq) of NECA-treated PBMCs; format: cell-based
Protocol: RNA purified from normal, healthy human peripheral blood mononuclear cells (PBMCs) treated with 5′-N-ethylcarboxamidoadenosine (NECA) and activated with anti-CD3/CD28 antibody were analyzed by NanoString hybridization-based quantification (NanoString Technologies, Inc.). […] Each dot represents the expression level of a specific gene. Dot shade represents the concentration of NECA used and/or different PBMC donors. […] Data were confirmed by RNA sequencing (RNA-Seq).

[5] = test system: human peripheral blood mononuclear cells (PBMCs); assay: NanoString quantification of mRNA in NECA-treated, anti-CD3/CD28-activated PBMCs; format: cell-based; details: 0.1 μM, 1 μM, and/or 10 μM NECA vs vehicle-treated control
Protocol: RNA purified from normal, healthy human peripheral blood mononuclear cells (PBMCs) treated with 5′-N-ethylcarboxamidoadenosine (NECA) and activated with anti-CD3/CD28 antibody were analyzed by NanoString hybridization-based quantification (NanoString Technologies, Inc.). […] Each dot represents the expression level of a specific gene. Dot shade represents the concentration of NECA used and/or different PBMC donors.

Cc1ccc(-c2nc(N)nc3c2nnn3Cc2cccc(CO[C@H]3CCOC3)n2)o1 [CPI-444, (S)-7-(5-methylfuran-2-yl)-3-((6-(((tetrahydrofuran-3-yl)oxy)methyl)pyridin-2-yl)methyl)-3H-[1,2,3]triazolo[4,5-d]pyrimidin-5-amine]
Blocking of NECA-induced CXCL5 protein expression ([1]; PBMCs treated with NECA, followed by CPI-444, then anti-CD3/CD28, ELISA two days after activation): can be blocked
anti-tumor activity [2]: demonstrated anti-tumor activity
Inhibition of A2AR-stimulation-induced gene expression changes [3]: inhibited these changes

CCNC(=O)[C@H]1O[C@@H](n2cnc3c(N)ncnc32)[C@H](O)[C@@H]1O [NECA, 5′-N-ethylcarboxamidoadenosine]
logFC CCL24 ([4]; Control (DMSO) vs 0.1 μm NECA): −1.068
logFC CD93 ([4]; Control (DMSO) vs 0.1 μm NECA): 0.9975
logFC CSF3 ([4]; Control (DMSO) vs 0.1 μm NECA): 1.603
logFC CXCL2 ([4]; Control (DMSO) vs 0.1 μm NECA): 1.452
logFC CXCL3 ([4]; Control (DMSO) vs 0.1 μm NECA): 1.694
logFC CXCL5 ([4]; Control (DMSO) vs 0.1 μm NECA): 2.388
logFC EHF ([4]; Control (DMSO) vs 0.1 μm NECA): −0.2753
logFC EML6 ([4]; Control (DMSO) vs 0.1 μm NECA): 0.2117
logFC EPB41L3 ([4]; Control (DMSO) vs 0.1 μm NECA): 1.183
logFC FUT7 ([4]; Control (DMSO) vs 0.1 μm NECA): −0.2135
logFC HAS1 ([4]; Control (DMSO) vs 0.1 μm NECA): 2.059
logFC IL23A ([4]; Control (DMSO) vs 0.1 μm NECA): 0.7971
logFC INHBA ([4]; Control (DMSO) vs 0.1 μm NECA): 0.5196
logFC KLC4 ([4]; Control (DMSO) vs 0.1 μm NECA): 0.216
logFC LAYN ([4]; Control (DMSO) vs 0.1 μm NECA): 0.4228
logFC MRPL11 ([4]; Control (DMSO) vs 0.1 μm NECA): −0.19
logFC MS4A7 ([4]; Control (DMSO) vs 0.1 μm NECA): 0.9319
logFC NPR1 ([4]; Control (DMSO) vs 0.1 μm NECA): 0.7892
logFC OST4 ([4]; Control (DMSO) vs 0.1 μm NECA): 0.2352
logFC PADI2 ([4]; Control (DMSO) vs 0.1 μm NECA): 0.4802
logFC PTGS2 ([4]; Control (DMSO) vs 0.1 μm NECA): 1.184
logFC SLC7A7 ([4]; Control (DMSO) vs 0.1 μm NECA): 0.5935
logFC SPON1 ([4]; Control (DMSO) vs 0.1 μm NECA): 0.3611
logFC ST6GALNAC2 ([4]; Control (DMSO) vs 0.1 μm NECA): 0.5342
logFC SYTL3 ([4]; Control (DMSO) vs 0.1 μm NECA): 0.2894
logFC WDR83OS ([4]; Control (DMSO) vs 0.1 μm NECA): −0.2872
logFC ZBTB18 ([4]; Control (DMSO) vs 0.1 μm NECA): 0.2431
logFC CCDC60 ([4]; Control (DMSO) vs 1 μm NECA): 0.07658
logFC CD93 ([4]; Control (DMSO) vs 1 μm NECA): 1.454
logFC CSF3 ([4]; Control (DMSO) vs 1 μm NECA): 2.802
logFC CXCL2 ([4]; Control (DMSO) vs 1 μm NECA): 2.361
logFC CXCL3 ([4]; Control (DMSO) vs 1 μm NECA): 2.573
logFC CXCL5 ([4]; Control (DMSO) vs 1 μm NECA): 3.451
logFC EHF ([4]; Control (DMSO) vs 1 μm NECA): −0.2522
logFC EMR3 ([4]; Control (DMSO) vs 1 μm NECA): 1.364
logFC EPB41L3 ([4]; Control (DMSO) vs 1 μm NECA): 1.854
logFC EREG ([4]; Control (DMSO) vs 1 μm NECA): 1.89
logFC FUT7 ([4]; Control (DMSO) vs 1 μm NECA): −0.4158
logFC GPR157 ([4]; Control (DMSO) vs 1 μm NECA): 0.9283
logFC HAS1 ([4]; Control (DMSO) vs 1 μm NECA): 3.238
logFC IL23A ([4]; Control (DMSO) vs 1 μm NECA): 1.363
logFC IL24 ([4]; Control (DMSO) vs 1 μm NECA): 2.876
logFC INHBA ([4]; Control (DMSO) vs 1 μm NECA): 0.9638
logFC LAYN ([4]; Control (DMSO) vs 1 μm NECA): 0.5277
logFC MS4A7 ([4]; Control (DMSO) vs 1 μm NECA): 1.535
logFC OST4 ([4]; Control (DMSO) vs 1 μm NECA): −0.1747
logFC PADI2 ([4]; Control (DMSO) vs 1 μm NECA): 0.7173
logFC PID1 ([4]; Control (DMSO) vs 1 μm NECA): 1.729
logFC PTGS2 ([4]; Control (DMSO) vs 1 μm NECA): 2.23
logFC SLC7A7 ([4]; Control (DMSO) vs 1 μm NECA): 0.9514
logFC SPON1 ([4]; Control (DMSO) vs 1 μm NECA): 0.5667
logFC ST6GALNAC2 ([4]; Control (DMSO) vs 1 μm NECA): 0.8306
logFC TGIF1 ([4]; Control (DMSO) vs 1 μm NECA): 0.4769
logFC ZBTB18 ([4]; Control (DMSO) vs 1 μm NECA): 0.3385
logFC CCNE1 ([4]; Control (DMSO) vs 10 μm NECA): −0.4518
logFC CD93 ([4]; Control (DMSO) vs 10 μm NECA): 1.895
logFC CD300E ([4]; Control (DMSO) vs 10 μm NECA): 1.71
logFC CSF3 ([4]; Control (DMSO) vs 10 μm NECA): 3.508
logFC CXCL2 ([4]; Control (DMSO) vs 10 μm NECA): 3.011
logFC CXCL3 ([4]; Control (DMSO) vs 10 μm NECA): 3.106
logFC CXCL5 ([4]; Control (DMSO) vs 10 μm NECA): 3.354
logFC DENA5 ([4]; Control (DMSO) vs 10 μm NECA): 0.6559
logFC ECEL1 ([4]; Control (DMSO) vs 10 μm NECA): 0.6918
logFC EPB41L3 ([4]; Control (DMSO) vs 10 μm NECA): 2
logFC GALM ([4]; Control (DMSO) vs 10 μm NECA): −0.3189
logFC GBP6 ([4]; Control (DMSO) vs 10 μm NECA): −0.8039
logFC GPR157 ([4]; Control (DMSO) vs 10 μm NECA): 1.139
logFC HAS1 ([4]; Control (DMSO) vs 10 μm NECA): 3.807
logFC IL5 ([4]; Control (DMSO) vs 10 μm NECA): −0.6885
logFC IL23A ([4]; Control (DMSO) vs 10 μm NECA): 1.332
logFC INHBA ([4]; Control (DMSO) vs 10 μm NECA): 1.192
logFC LAP3 ([4]; Control (DMSO) vs 10 μm NECA): −0.4286
logFC LOC100505585 ([4]; Control (DMSO) vs 10 μm NECA): 0.6639
logFC NID1 ([4]; Control (DMSO) vs 10 μm NECA): 1.087
logFC PADI2 ([4]; Control (DMSO) vs 10 μm NECA): 0.9386
logFC PID1 ([4]; Control (DMSO) vs 10 μm NECA): 2.124
logFC PTGS2 ([4]; Control (DMSO) vs 10 μm NECA): 2.349
logFC RHCG ([4]; Control (DMSO) vs 10 μm NECA): 0.5767
logFC SLC7A7 ([4]; Control (DMSO) vs 10 μm NECA): 0.9134
logFC SPON1 ([4]; Control (DMSO) vs 10 μm NECA): 0.568
logFC ST6GALNAC2 ([4]; Control (DMSO) vs 10 μm NECA): 0.876
CXCL5 protein in the culture supernatants (ELISA) ([1]; PBMCs from two human donors, anti-CD3/CD28 activated, two days after activation, vs DMSO): activated; also recorded: dose-dependent increase in CXCL5
logFC CD14 [5]: 0.4485
logFC CD86 [5]: 0.3148
logFC CLEC5A [5]: 0.3833
logFC CXCL1 [5]: 0.6909
logFC CXCL2 [5]: 1.093
logFC CXCL3 [5]: 1.101
logFC CXCL5 [5]: 1.338
logFC CXCL6 [5]: 0.6535
logFC IL1A [5]: 0.6367
logFC IL1B [5]: 0.6345
logFC IL6 [5]: 0.7014
logFC IL8 [5]: 0.6411
logFC IL23A [5]: 0.4628
logFC IL24 [5]: 0.5768
logFC PLAUR [5]: 0.5031
logFC PPBP [5]: 0.683
logFC PTGS2 [5]: 0.6892
logFC SLC11A1 [5]: 0.7022
logFC TBX21 [5]: −0.1238
logFC THBS1 [5]: 0.8703
